From PubChem BioAssay (NCI)
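All cell lines were grown in 96-well plates and treated with compound for 48 hours. TGI marks complete inhibition of growth.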

Key:
Experiment in all cases: DTP human tumour cell line panel, 48 h
A549 NSCLC = tested on: A549 NSCLC
NCI/ADR-RES ovarian = tested on: NCI/ADR-RES ovarian
U251 CNS = tested on: U251 CNS
SR leukemia = tested on: SR leukemia
MOLT-4 leukemia = tested on: MOLT-4 leukemia

SMILES | TGI (A549 NSCLC) | TGI (NCI/ADR-RES ovarian) | TGI (U251 CNS) | TGI (SR leukemia) | TGI (MOLT-4 leukemia)
O=C(CC(O)(C(F)(F)Cl)C(F)(F)Cl)CC(O)(C(F)(F)Cl)C(F)(F)Cl | > 10 µM | > 10 µM | 7.39 µM | > 10 µM | > 10 µM
CO[C@@H]1C[C@H]2[C@@H]3CC[C@H]([C@@H](C)COC(C)=O)[C@@]3(C)CC[C@@H]2[C@@]2(C)CC[C@H]3C[C@]312 | 37.3 µM | 30.4 µM | 25.8 µM | 26.5 µM | 32.3 µM
Brc1ccc(N=C/C=C(\Nc2ccc(Br)cc2)C23CC4CC(CC(C4)C2)C3)cc1 | > 100 µM | > 84.9 µM | 28.7 µM |  | > 72.8 µM
CCN(CC)CCOc1ccc(N2Cc3cc(OC)c(OC)cc3C2=O)cc1 | > 100 µM | > 100 µM | > 100 µM | > 100 µM | > 100 µM
CCOC(=O)C(=NN(C)c1ncccc1N)C(=O)OCC | > 100 µM | > 100 µM | > 100 µM | > 100 µM | 53.7 µM
CC(=O)c1cc2sc3ccccc3c2[nH]1 | > 100 µM | > 100 µM | > 100 µM |  | > 100 µM
O=C(O)CSc1nc2ccccc2[nH]1 | > 100 µM | > 100 µM | > 100 µM | > 100 µM | > 100 µM
COc1cc(/C=C2\N=C(c3ccccc3)N(c3ccc4c(c3)Sc3cc(N5C(=O)/C(=C/c6cc(OC)c(OC)c(OC)c6)N=C5c5ccccc5)ccc3N4)C2=O)cc(OC)c1OC | > 100 µM | > 100 µM | 44.2 µM |  | > 100 µM
CC(Cc1ccc(O)cn1)(NC(=O)c1ccccc1)C(=O)O (stereo unspecified) | > 100 µM | > 100 µM | > 100 µM | > 100 µM | > 100 µM
C=CC(Br)(CBr)CCC1OC1(C)C (stereo unspecified) | 64.3 µM | 58.7 µM | 30.7 µM | 86.8 µM | 47.8 µM
CCOC(=O)C(=O)N=Nc1c(O)[nH]c2ccccc12 | > 100 µM | > 100 µM | > 100 µM | > 100 µM | > 100 µM
Cn1c(=O)oc2cc(C(=O)CN3CCN(Cc4ccc5c(c4)OCO5)CC3)c(Cl)cc21 |  | > 100 µM | > 100 µM | > 100 µM | > 100 µM
O=C(Nn1c(-c2ccccc2)nc2ccccc2c1=O)c1ccc([N+](=O)[O-])cc1 | > 100 µM | > 100 µM | > 100 µM | > 100 µM | > 100 µM
COc1cc(C)cc(C(=O)OCc2ccccc2)c1C1=C(Cl)C(=O)C(Cl)=CC1=O | > 10 µM | > 10 µM | > 10 µM | > 7.85 µM | 5.29 µM
CC1(C)OC[C@@H]([C@H](C=O)OCc2ccccc2)O1 | > 100 µM | > 100 µM | > 100 µM | > 100 µM | > 100 µM
Cc1ccc(OC2CC(n3cnc4c(=O)[nH]c(Br)nc43)OC2Oc2ccc(C)cc2)cc1 (stereo unspecified) | 69.7 µM | 69.2 µM | 79.9 µM | 51.1 µM | 50.5 µM
